Data from US8193333B2, “Cancer therapy using Bcl-Xl-specific siNA” (Centre Regional de Lutte Contre le Cancer-Centre Francois …, priority 2006, dated 2012).

Key:
[1] = system: SKOV3 cells; experiment: Cell mortality, viability, growth and cell cycle of SKOV3 cells (morphology, trypan blue exclusion, FACS of DNA content); type: cell-based, human
Method: Exponentially growing cells were exposed to CDDP for 2 hours at 37° C., in serum free medium. After exposure to the drug, the cell layers were rinsed and incubated in complete growth medium.
The siRNA duplexes were transfected according to the recommended procedure by using the Oligofectamine Reagent and Opti-MEM medium (INVITROGEN LIFE TECHNOLOGIES). 30-40% confluent cells were transfected in 25 cm^2 flasks with different concentrations of siXL1, siRNA Mcl-1 or siRNA control and incubated at 37° C., 5% CO2 for 4 hours. Next, 20% fetal bovin serum was added to reach a final concentration of 10% foetal bovin serum in the 25 cm^2 flask.
After treatment, detached cells were collected separately and adherent cells were dissociated by trypsin/EDTA. Adherent and detached cells were then pooled and centrifuged at 1500×g for 5 min before being fixed in 70% ethanol. The cells were then collected on a polylysine-coated glass slide by cytocentrifugation, before a 30 min room temperature incubation in a 1 μg/ml DAPI aqueous solution (BOEHRINGER MANNHEIM). Slides were thereafter extensively washed in distilled water and mounted in Mowiol (CALBIO-CHEM).
After treatment, detached cells were collected separately. Adherent cells were then harvested by trypsin/EDTA dissociation. Adherent and detached cells were then pooled and washed in PBS before being fixed in 70% ethanol and stored at −20° C. until analysis. Before flow cytometry analysis, the cells were washed in PBS and incubated for 30 min at room temperature in PBS in order to allow the release of low molecular weight (m.w.) DNA, characteristic of apoptotic cells. After a centrifugation at 4000 g for 10 min, the cell pellets were resuspended and stained with propidium iodide (PI) using the DNA Prep Coulter Reagent Kit (BECKMAN-COULTER) at a final concentration of 10^6 cells/ml.
Samples were analyzed using an EPICS XL flow cytometer (BECKMAN COULTER) equipped with an argon laser at 15 mW. PI-stained cells were analyzed using a 488 mn excitation. A 620 nm band pass filter was put on the red fluorescence of PI. Computerized gating was applied on the side and forward scatter to exclude very small debris and on pulse width and integral peak of red fluorescence to eliminate aggregates. All samples were analyzed at a flow rate lower than 100 events per second and with a sheath pressure of 30 psi.

[2] = system: intraperitoneal SKOV3 human ovarian adenocarcinoma; experiment: Survival of nude mice bearing intraperitoneal SKOV3 tumours; type: in vivo, Swiss/nude mice
Method: 4-week-old female Swiss/nude mice were obtained from CHARLES-RIVER LABORATORIES and maintained in a pathogen-free environment. The mice were fed a standard laboratory diet and tap water ad libitum and kept a 23±1° C. with a 12 h light/dark cycle. Animal experiments in the present study were performed in compliance with the guidelines of the Federation of european laboratory animal science associations.
6-8 weeks old mice were implanted intraperitoneally with 2×10^7 ovarian adenocarcinoma SKOV3 cells. As described previously, this model reflects the i.p growth pattern of advanced ovarian cancer (Louis et al, Cancer Gene Therapy, 2006, 13, 367-374).
Twenty one days after tumour implantation, mice were allocated to one of the eight treatment groups (10 mice per group) summarized in Table II: • Group 1 comprised untreated animals. • Group 2 received intraperitoneal injection of 4 μg/kg cisplatin in 1 ml 0.9% NaCl solution. • Group 3 received intraperitoneal injection of 25 μg/kg control siRNA in 1 ml 0.9% NaCl. • Group 4 received intraperitoneal injection of 25 μg/kg Bcl-XL siRNA in 1 ml 0.9% NaCl. • Group 5 received intraperitoneal injection of 25 μg/kg control siRNA in 1 ml 0.9% NaCl and the following day 4 μg/kg of cisplatin in 1 ml 0.9% NaCl solution. • Group 6 received intraperitoneal injection of 4 μg/kg of cisplatin in 1 ml 0.9% NaCl solution and the following day 25 μg/kg control siRNA in 1 ml 0.9% NaCl. • Group 7 received intraperitoneal injection of 25 μg/kg Bcl-XL siRNA in 1 ml 0.9% NaCl and the following day 4 μg/kg of cisplatin in 1 ml 0.9% NaCl solution. • Group 8 received intraperitoneal injection of 4 μg/kg of cisplatin in 1 ml 0.9% NaCl solution and the following day 25 μg/kg Bcl-XL siRNA in 1 ml 0.9% NaCl.
The same treatment was repeated one month later. Mice were killed and autopsied when considered as moribund. Organs and tumours were formalin-fixed and paraffin-embedded for histological examination. At the end of the experiment, all surviving animals were sacrificed, and histological examination was performed in order to detect residual tumour nodes.

[3] = system: Bcl-XL protein; experiment: Immunohistochemical analysis of Bcl-XL protein in SKOV3 peritoneal tumour nodes of mice; type: in vivo, human; conditions: naked siXL1 5, 25 or 100 μg/kg, 3 days after injection
Method: […] […] The solution was quickly homogenized and left for 15 min at room temperature. It was injected intraperitoneally in mice as a 0.5 ml 5% glucose solution.
[…] Mice were killed 3 days after transfection and each organ (kidney, liver, spleen, pancreas, ovary, peritoneum, diaphragm, lung, heart and skeletal muscle) was washed with saline solution. Parts of each organs were either frozen in liquid nitrogen and stored at −80° C. for RT-PCR and western blot analysis, or formalin-fixed and paraffin-embedded for histological examination and immunohistochemical analysis.
Immunohistochemical staining was performed on paraffin-embedded material. To perform immunostaining, 4 μm-thick sections were dewaxed, rehydrated and treated 30 minutes by high-temperature-heating antigen retrieval technique in citrate buffer 0.1M pH6 to unmask epitopes. Sections were incubated 1 hour at room temperature with polyclonal antibody anti-Bcl-XL/S (S18) obtained from Santa Cruz (TEBU-BIO) and diluted 1:50. After washes, slides were incubated with Rabbit IgG Vectastain ABC Kit (VECTOR, ABCYS) according to the manufacturer instructions.

## siXL1: double-stranded siRNA blocking Bcl-XL expression; sense 5′-auuggugagucggaucgcatt-3′ (SEQ ID NO: 5), anti-sense 5′-ugcgauccgacucaccaautt-3′ (SEQ ID NO: 6) (sense AUUGGUGAGUCGGAUCGCATT; antisense UGCGAUCCGACUCACCAAUTT; chemistry not given here)
[1]; 50 nM each siRNA, absence of cisplatin, FIG. 12
  cytotoxic effect on SKOV3 cells: no cytotoxic effect
[1]; SKOV3 cells, FIGS. 13 and 14
  cytotoxic effect of each siRNA: slight cytoxic effect
[1]; SKOV3 cells, alone 150 nM or in combination 75 nM each, FIGS. 13 and 14
  cell viability (trypan blue exclusion): reduction of cell viability
[1]; SKOV3 cells, cisplatin 5 or 20 μg/ml, siRNA 150 nM
  cell death (morphology, FACS analysis of the cell cycle): moderate cell death by apoptosis
[2]; group treated with siXL1
  mice that die in the same interval as the control mice: 50%
  mice with no residual tumors at autopsy after 150 days: 50%
[2]; low dose, mice implanted with human chemoresistant tumor cells
  duration of complete regression of the pre-established tumor after tumor cells implantation: at least 5 months
[2]; naked siRNA 25 μg/kg intraperitoneal, 2 injections at 28 days interval, FIG. 15
  survival at 130 days: 60%
[2]; siRNA 25 μg/kg, cisplatin 4 μg/kg intraperitoneal, treatment repeated one month later, FIG. 15
  effect on mice survival: increases considerably
[3]
  Bcl-XL labelling intensity in tumour nodes: decreases as the siXL1 dose increases
